One block for each compound: values may come before it.
What was measured:
[1] = cited from earlier work
[2] = Dissolution of API from ODTs (USP 31 guidelines); assay type: physicochemical; details: 70-80N hardness
Method: Dissolution properties of the ODTs were determined by following USP 31 guidelines for each model APIs. The percent of drug released at predetermined time intervals were calculated and plotted against the sampling time to obtain the release profiles. ODTs that fall within a 70-80N hardness range were studied.

[3] = cited from earlier work; remark: listed apart in the source

SMILES: CC(=O)Oc1ccccc1C(=O)O [Aspirin]
- solubility in water (in words) [1]: highly water soluble

SMILES: Cn1c(=O)c2nc[nH]c2n(C)c1=O [Theophylline]
- pKa [3]: 8.7
- solubility in water ([1]; neutral distilled water at 25° C.): about 8 mg/mL
- time to full release of API from ODT ([2]; theophylline ODTs): fully released at five minutes

SMILES: OC[C@@H](O)[C@@H](O)[C@H](O)[C@H](O)CO [Spray dried mannitol, mannitol]
- time in which 5 g dissolves in 150 mL of water ([1]; at 20° C.): approximately 5 sec

Continued, in another order:

- time to full release of API from ODT ([2]; naproxen ODTs): ≤ 10 min
SMILES: COc1ccc2cc([C@H](C)C(=O)O)ccc2c1 [Naproxen]

- time to full release of API from ODT ([2]; CPM ODTs): ≤ 5 min
SMILES: CN(C)CC[C@@H](c1ccc(Cl)cc1)c1ccccn1.O=C(O)/C=C\C(=O)O [CPM, Chlorpheniramine Maleate]
- pKa [3]: 9.2

- time to full release of API from ODT ([2]; acetaminophen ODTs): ≤ 10 min
SMILES: CC(=O)Nc1ccc(O)cc1 [Acetaminophen]
- pKa [3]: 9.2
- solubility in water (in words) [1]: highly water soluble
